What all share (assay): whole plant or invertebrate
Format in all cases: in vivo

The test system of assay [1] is wheat stem rust (Puccinia graminis f. sp. tritici Race 15B-2). The following applies: 336 h, read-out: % Control WSR (percent disease control).
For assay [2], the system named is rice sheath blight (Pellicularia filamentosa f. sp. sasiki). To be noted: Oryza sativa, 120 h, read-out: % Control RSB (percent disease control).
Assay [3] has as its system rice blast (Piricularia oryzae). To be noted: Pyricularia oryzae, 192 h, read-out: % Control RB (percent disease control).
Assay [4] relates to cucumber downy mildew (Pseudoperonospora cubensis). To be noted: 168 h, read-out: % Control CDM (percent disease control).
The subject of assay [5] is wheat powdery mildew (Erysiphe graminis f. sp. tritici). To be noted: Blumeria graminis, read-out: % Control WPM (percent disease control).

For `[C-]#[N+]CC(CCCC)(Cn1cncn1)c1ccc(Cl)cc1` (stereo not shown) [Example 2, 2-(4-Chlorophenyl)-2-[(1,2,4-triazol-1-yl)methyl]hexylisocyanide], the pest or weed control at 200 ppm is 100% in assay [1]; 0% in assay [2]; 0% in assay [3]; 0% in assay [4]; 80% in assay [5].
For the compound `CCCCC(Cn1cncn1)(C(=O)N=[N+]=[N-])c1ccc(Cl)cc1` (stereo not shown) [Example 5, 2-(4-Chlorophenyl)-2-[(1,2,4-triazol-1-yl)methyl]hexanoylazide], the pest or weed control at 200 ppm in assay [1] stood at 70%; in assay [2], 0%; in assay [4], 20%; in assay [5], 100%.
Regarding `[C-]#[N+]C(CCCC)(Cn1cncn1)c1ccc(Cl)cc1` (stereo not shown) [Example 9, 2-(4-Chlorophenyl)-1-(1,2,4-triazol-1-yl)-2-hexylisocyanide], the pest or weed control at 200 ppm is 90% in assay [1]; 0% in assay [2]; 80% in assay [3]; 0% in assay [4]; 100% in assay [5].
Regarding `C=CC(CCCC)(Cn1cncn1)c1ccc(Cl)cc1` (stereo not shown) [Example 4, 3-(4-Chlorophenyl)-3-[(1,2,4-triazol-1-yl)methyl]-1-heptene], the pest or weed control at 200 ppm in assay [1] came out at 100%; in assay [2] it was 60%; in assay [3], 80%; in assay [4], 80%; in assay [5], 100%.
`CCCCC(CNC=O)(Cn1cncn1)c1ccc(Cl)cc1` (stereo not shown) [Example 1, N-(2-(4-Chlorophenyl)-2-[(1,2,4-triazol-1-yl)methyl]hexyl)formamide]: the pest or weed control at 200 ppm turned out to be 0% in assay [1]; 0% in assay [2]; 0% in assay [3]; 0% in assay [4]; 80% in assay [5].
On to `CCCCC(C=NO)(Cn1cncn1)c1ccc(Cl)cc1` (stereo not shown) [Example 6, 2-(4-Chlorophenyl)-(E,Z)-1-hydroxyamino-2-[(1,2,4-triazol-1-yl)methyl]hexanal], for which the pest or weed control at 200 ppm in assay [1] amounted to 100%; in assay [2] it was 0%; in assay [3], 0%; in assay [4], 0%; in assay [5], 100%.
For the compound `CCCCC(Cn1cncn1)(NC=O)c1ccc(Cl)cc1` (stereo not shown) [Example 8, N-[2-(4-Chlorophenyl)-1-(1,2,4-triazol-1-yl)-2-hexyl]formamide], the pest or weed control at 200 ppm in assay [1] stood at 60%; in assay [3], 0%; in assay [4], 0%; in assay [5] it was 100%.
Regarding `CCCCC(C=O)(Cn1cncn1)c1ccc(Cl)cc1` (stereo not shown) [Example 3, 2-(4-Chlorophenyl)-2-[(1,2,4-triazol-1-yl)methyl]hexanal], the pest or weed control at 200 ppm in assay [1] was 100%; in assay [2] it was 50%; in assay [3], 70%; in assay [4], 0%; in assay [5] it was 100%.
Regarding `CCCCC(Cn1cncn1)(NC(C)=O)c1ccc(Cl)cc1` (stereo not shown) [Example 10, N-[2-(4-Chlorophenyl)-1-(1,2,4-triazol-1-yl)-2-hexyl]acetamide], the pest or weed control at 200 ppm in assay [1] was determined as 0%; in assay [2], 70%; in assay [3], 0%; in assay [4], 0%; in assay [5], 30%.

The values are drawn from US5364870A (priority 1993, dated 1994).
